Experimental data published in patent EP1656941A1, “Compositions for the treatment of diabetic nephropathy” (Clinigene International Private Limited, priority 2004, dated 2006).

How the values were obtained:
[1] = tested on: patients with diabetic nephropathy; test: 24-hour urine protein (proteinuria), Pyrogallol Red / SDS reagent method; open-labeled, randomized three-arm study; type: in vivo, human; design: 24h Urine protein (Mean) / Difference 24h Urine protein: unit not given here
Source text: The study of the effect of MMF and lisinopril for the treatment of diabetic nephropathy was designed in the following manner.
In this study, a total of 30 patients were planned of which 18 were randomized and subjected to enter into one of the studies in which the patient groups each received MMF alone, lisinopril alone, or a combination of both MMF and lisinopril.
The primary end-point for this study was the proteinuria value obtained from the patients via 24-hour urine protein which was measured using the Calorimetric method Pyrogallol Red / SDS liquid stable single reagent.
The inclusion of a patient is based on the following criteria. Type 1 and type 2 diabetic patients; male and postmenopausal (Natural & surgical) female diabetic patients; age 18-65 years; micral test positive (albumin excretion rate 20-200 µgm/min); patient must be able to swallow the oral medications to be used in the study; patient must sign an informed consent prior to the study.
The exclusion of a subject from the study is based on the following criteria: Premenopausal female patients of any age; clinical evidence of SLE; uncontrolled diabetes (Fasting Blood Glucose≥ 160 mg/dl or HbA1c ≥ 7.5%); uncontrolled hypertension (Systolic blood pressure ≥ 160 mm Hg and/or diastolic blood pressure ≥ 100 mm Hg); impaired renal function with serum creatinine ≥ 1.4 mg/dl; well-documented history of Henoch-Schonlein Purpura (with an exception to previous nonspecific abdominal pain or rash ― which is not an exclusion criteria); clinical evidence of cirrhosis or chronic active liver disease; abnormal laboratory values at the time of study entry; absolute neutrophil count (ANC) < […], or hematocrit (HCT) < 28%; AER > 200 µgm/min; BUN ≥ 25 mg/dl; known contraindication or allergy to the administration of MMF or lisinopril; history of significant gastrointestinal disorder, e.g. severe chronic diarrhea or active peptic ulcer disease; active systemic infection or history of serious infection within one month of entry; known infection with HIV, hepatitis B or hepatitis C; other major organ system disease or malignancy other than skin cancer fully excised more than 5 years prior to entry; current or prior treatment with MMF or azathioprine; current or recent (within 30 days) exposure to any investigational drug.
(§1) Evaluation of the effects of MMF or ACE inhibitors alone or in combination on the status of proteinuria in patients with diabetic nephropathy was an open-labeled, randomized study. This study consisted of three arms as shown below. • 1. treatment with MMF alone • 2. treatment with combination of MMF and lisinopril • 3. treatment with lisinopril alone In addition, there were three phases of the study as shown below.
Phase 1: Screening Phase (Duration 1 to 4 weeks): 303 patients were screened on their first visit (V1), based on the given inclusion and exclusion criteria to determine if they were eligible for the study and to assess likelihood of compliance with study protocol. Micral test for every patient was done to determine the eligibility.
(§2) Phase 2: Treatment Phase (6 months): Every patient who qualified the screening phase was assigned one of the treatment arms. During this phase, patients were monitored closely and efficacy and safety parameters are assessed every month.
• 1. MMF: The dose of MMF given during the study was 500 mg per oral twice a day throughout the study. • 2. Lisinopril: The starting dose of lisinopril given in the study was 5 mg per oral twice a day. In case of hypertensive patients, the dose could be titrated upwards based on investigator's discretion, which in turn was based on the patient's "safety end point". • 3. MMF + Lisinopril: In the patients who received both the drugs, the dose of MMF was 500 mg per oral twice a day and lisinopril was 5 mg per oral twice a day. […]

[2] = tested on: patients with diabetic nephropathy; test: Estimated GFR by the Cockcroft - Gault formula; open-labeled, randomized three-arm study; type: in vivo, human
Experimental: A secondary end-point for this study was the GFR value obtained for each patient. This Secondary Endpoint included Estimated GFR, which was calculated using the following formulae: […]
Measurement of GFR Once all data was collected, Glomerular Filtration Rate GFR) was determined by the Cockcroft - Gault formula.
Estimated GFR(inml/min) = ([140−age(in years)∗weight(in Kg))/(Serum Creatinie level(inμmol/L)) [formula]
Estimated GFR(inml/min) = (1.23∗[140−age(in years)∗weight(in Kg))/(Serum Creatinie level(inμmol/L)) [formula]
as §1, §2
• 1. MMF: The dose of MMF given during the study was 500 mg per oral twice a day throughout the study. • 2. Lisinopril: The starting dose of lisinopril given in the study was 5 mg per oral twice a day. In case of hypertensive patients, the dose could be titrated upwards based on investigator's discretion, which in turn was based on the patient's "safety end point". • 3. MMF + Lisinopril: In the patients who received both the drugs, the dose of MMF was 500 mg per oral twice a day and lisinopril was 5 mg per oral twice a day. In the case of hypertensive patients, the dose of lisinopril could be titrated upwards based on investigator's discretion, which in turn was based on the patient's "safety end point".

[3] = tested on: patients with type 1 diabetes mellitus and diabetic nephropathy; settings: Lewis et. al. 1993; cited from earlier work
[4] = tested on: patients with IgA nephropathy; settings: MMF 1-1.5g per day vs 30-40 mg of Prednisone per day; followed for seventy two weeks; preliminary report; cited from earlier work
Diabetic rats = settings: Utimura et. al. 2003, cited from earlier work
[5] = Benefited patients, 1 month after treatment at V3, lisinopril 5mg twice daily
[6] = Benefited patients, 3 month after treatment at V4, lisinopril 5mg twice daily
[7] = Benefited patients, 6 month after treatment at V5, lisinopril 5mg twice daily
[8] = Benefited patients, V3 (1 month) versus baseline V2, lisinopril 5mg twice daily
[9] = Benefited patients, V4 (3 month) versus baseline V2, lisinopril 5mg twice daily
[10] = Benefited patients, V5 (6 month) versus baseline V2, lisinopril 5mg twice daily
[11] = Not benefited patients, 1 month after treatment at V3, lisinopril 5mg twice daily
[12] = Not benefited patients, 3 month after treatment at V4, lisinopril 5mg twice daily
[13] = Not benefited patients, 6 month after treatment at V5, lisinopril 5mg twice daily
[14] = Not benefited patients, V3 (1 month) versus baseline V2, lisinopril 5mg twice daily
[15] = Not benefited patients, V4 (3 month) versus baseline V2, lisinopril 5mg twice daily
[16] = Not benefited patients, V5 (6 month) versus baseline V2, lisinopril 5mg twice daily
[17] = Benefited patients, 1 month after treatment at V3, MMF 500 mg per oral twice a day
[18] = Benefited patients, 3 month after treatment at V4, MMF 500 mg twice daily
[19] = Benefited patients, V3 (1 month) versus baseline V2, MMF 500 mg per oral twice a day
[20] = Benefited patients, V4 (3 month) versus baseline V2, MMF 500 mg twice daily
[21] = Not benefited patients, 1 month after treatment at V3, MMF 500 mg per oral twice a day
[22] = Not benefited patients, 3 month after treatment at V4, MMF 500 mg twice daily
[23] = Not benefited patients, V3 (1 month) versus baseline V2, MMF 500 mg per oral twice a day

NCCCC[C@H](N[C@@H](CCc1ccccc1)C(=O)O)C(=O)N1CCC[C@H]1C(=O)O [lisinopril]
24h Urine protein (Mean) [1, 5]: 236.66 | 24h Urine protein (Mean) [1, 6]: 161.15 | 24h Urine protein (Mean) [1, 7]: 248.4 | Difference 24h Urine protein [1, 8]: -133.6 | Difference 24h Urine protein [1, 9]: -268.75 | Difference 24h Urine protein [1, 10]: -239.6 | 24h Urine protein (Mean) [1, 11]: 211.25 | 24h Urine protein (Mean) [1, 12]: 289.2 | 24h Urine protein (Mean) [1, 13]: 626 | Difference 24h Urine protein [1, 14]: 53.73 | Difference 24h Urine protein [1, 15]: 101.47 | Difference 24h Urine protein [1, 16]: 254.2 | reduced proteinuria in % of the patients ([1]; at the end of 1 month (V3 vs V2), 5mg of lisinopril twice daily): 42% | reduced proteinuria in % of the patients ([1]; at the end of 3 month (V4 vs V2), 5mg of lisinopril twice daily): 40% | reduced proteinuria in % of the patients ([1]; at the end of 6 month (V5 vs V2), 5mg of lisinopril twice daily): 50% | GFR (Mean) [2, 5]: 79.16 mL/min | GFR (Mean) [2, 6]: 89.55 mL/min | GFR (Mean) [2, 7]: 105.9 mL/min | Difference GFR [2, 8]: -0.09 mL/min | Difference GFR [2, 9]: 7.95 mL/min | Difference GFR [2, 10]: 28.5 mL/min | GFR (Mean) [2, 11]: 63.97 mL/min | GFR (Mean) [2, 12]: 68.76 mL/min | GFR (Mean) [2, 13]: 76.4 mL/min | Difference GFR [2, 14]: 1.91 mL/min | Difference GFR [2, 15]: 0.13 mL/min | Difference GFR [2, 16]: -9.4 mL/min

C[C@H](CS)C(=O)N1CCC[C@H]1C(=O)O [Captopril]
progression of renal disease [3]: prevents or delays

COc1c(C)c2c(c(O)c1C/C=C(\C)CCC(=O)OCCN1CCOCC1)C(=O)OC2 [MMF, mycophenolate mofetil]
24h Urine protein (Mean) [1, 17]: 112.73 | 24h Urine protein (Mean) [1, 18]: 260.8 | Difference 24h Urine protein [1, 19]: -203.93 | Difference 24h Urine protein [1, 20]: -136.6 | 24h Urine protein (Mean) [1, 21]: 696.3 | 24h Urine protein (Mean) [1, 22]: 305.5 | Difference 24h Urine protein [1, 23]: 361.7 | reduced proteinuria in % of the patients ([1]; after 1 month of treatment (V3 vs V2), MMF 500 mg per oral twice a day): 67% | reduced proteinuria in % of the patients ([1]; at V4 at the end of 3 months, 500 mg of MMF twice daily): 67% | GFR (Mean) [2, 17]: 89.3 mL/min | GFR (Mean) [2, 18]: 81.85 mL/min | Difference GFR [2, 19]: 0.27 mL/min | Difference GFR [2, 20]: -1.35 mL/min | GFR (Mean) [2, 21]: 75.26 mL/min | GFR (Mean) [2, 22]: 49.9 mL/min | Difference GFR [2, 23]: 4.40 mL/min | Difference GFR ([2]; Not benefited patients, V4 (3 month) versus baseline V2, MMF 500 mg twice daily): 49.9 mL/min | decreasing proteinuria, protecting renal function and also decreasing blood lipid levels [4]: superior to Prednisone | albuminuria, glomerular macrophage infiltration and glomerulosclerosis (Diabetic rats; 8 months): prevent | effect on blood pressure, glomerular dynamics or blood glucose levels (Diabetic rats): no effect
